This is an account of results in ChEMBL document CHEMBL1135067, “Synthesis and antithrombotic activity of carbolinecarboxyl RGD sequence” (2002).

Where a SMILES comes first, the peptide text is derived from it. [ ]: non-standard residue; d: D form. Tpi = O=C(O)[C@@H]1Cc2c([nH]c3ccccc23)CN1

What all share (assay type): functional
Test [1] is filed under the species Oryctolagus cuniculus. The test is described as follows: Tested in vitro for maximal rate of platelet aggregation induced by adenosine diphosphate (10 e5 mol/L) at a dose of 10 e5 mol/L in rabbit blood.
The species named for test [2] is Oryctolagus cuniculus. In words: Tested in vitro for maximal rate of platelet aggregation induced by adenosine diphosphate (10 e5 mol/L) at a dose of 10 e6 mol/L in rabbit blood.
For test [3], the species on record is Oryctolagus cuniculus. In words: Tested in vitro for maximal rate of platelet aggregation induced by adenosine diphosphate (10 e5 mol/L) at a dose of 10 e7 mol/L in rabbit blood.
For test [4], the species on record is Oryctolagus cuniculus. The test is described as follows: Tested in vitro for the maximal rate of platelet aggregation induced by platelet activating factor (10 e-7 mol/L) at a dose of 10 e5 mol/L in rabbit blood.
The species entered for test [5] is Oryctolagus cuniculus. In words: Tested in vitro for the maximal rate of platelet aggregation induced by platelet activating factor (10 e-7 mol/L) at a dose of 10 e6 mol/L in rabbit blood.
The species entered for test [6] is Oryctolagus cuniculus. In words: Tested in vitro for the maximal rate of platelet aggregation induced by platelet activating factor (10 e-7 mol/L) at a dose of 10 e7 mol/L in rabbit blood.
Test [7] relates to Rattus norvegicus. The test is described as follows: Tested for the effect on the dry thrombus weight at a dose of 5 umol/kg in male wistar anesthetized rat.
The subject of test [8] is Rattus norvegicus. The test is described as follows: Tested for the effect on the wet thrombus weight at a dose of 5 umol/kg in male wistar anesthetized rat.
Test [9] relates to SACC-LM. In words: Tested for the effect of compound on the adhesion of high pulmonary metastatic SACC cell line SACC-LM and platelets at 5 mg/mL.
In test [10] the test system is Rattus norvegicus. The test is described as follows: Tested for the effect on the wet thrombus weight at a dose of 5 uM/kg in male wistar anesthetized rat.
Test [11] concerns Rattus norvegicus. In words: Tested for the effect on the dry thrombus weight at a dose of 5 uM/kg in male wistar anesthetized rat.

Consider `NC(N)=NCCC[C@H](N)C(=O)NCC(=O)N[C@@H](CC(=O)O)C(=O)N[C@@H](Cc1ccccc1)C(=O)O` (H-RGDF-OH), for which the Am in [1] is 7.36%; in [2], 22.11%; in test [3], 35.7%; in [4], 7.81%; in test [5], 23.8%; in test [6], 39.18%. The Thrombus weight in test [7] came to 4.14 mg; in [8], 26.61 mg. This molecule also came in with an Activity in [9] of 29.7%.

Turning to `CC(C)[C@H](NC(=O)[C@H](CC(=O)O)NC(=O)CNC(=O)[C@@H](N)CCCN=C(N)N)C(=O)O` (H-RGDV-OH), the Am in test [1] is recorded as 9.8%; in test [2] it was 29.4%; in test [3] it was 51.16%; in test [4], 19.56%; in test [5] it was 34.17%; in test [6], 54.36%. Moreover, the values for the Thrombus weight in test [7] and in test [8] were 6.03 mg and 34.62 mg, respectively. The molecule also had an Activity in [9] of 32.1%.

On to `N=C(N)NCCC[C@H](NC(=O)[C@@H]1Cc2c([nH]c3ccccc23)CN1)C(=O)NCC(=O)N[C@@H](CC(=O)O)C(=O)N[C@@H](Cc1ccccc1)C(=O)O` (H-[Tpi]RGDF-OH), for which the Am amounted to 9.01% in test [1]; 21.05% in test [2]; 36.05% in test [3]; 20.05% in [4]; 25.54% in [5]; 36.05% in test [6]. For the same molecule, the Thrombus weight in test [7] stood at 2.76 mg; in test [10], 22.3 mg. In test [9], this molecule gave an Activity of 28.1%.

As to `N=C(N)NCCC[C@H](NC(=O)[C@@H]1Cc2c([nH]c3ccccc23)CN1)C(=O)NCC(=O)N[C@@H](CC(=O)O)C(=O)N[C@@H](CO)C(=O)O` (H-[Tpi]RGDS-OH), the Am came to 16.11% in test [1]; 43.05% in [2]; 50.16% in test [3]; 28.07% in [4]; 34.15% in [5]; 56.1% in [6]. The Thrombus weight in test [7] is reported as 4.98 mg; in test [8], 28.09 mg. This molecule also came in with an Activity in test [9] of 36.1%.

Turning to `CC(C)[C@H](NC(=O)[C@H](CC(=O)O)NC(=O)CNC(=O)[C@H](CCCN=C(N)N)NC(=O)[C@@H]1Cc2c([nH]c3ccccc23)CN1)C(=O)O` (H-[Tpi]RGDV-OH), the Am stood at 10.75% in test [1]; 26.01% in test [2]; 50.2% in test [3]; 24.11% in [4]; 35.05% in test [5]; 54.1% in [6]. Further, the figures for the Thrombus weight in test [7] and in [8] were 4.87 mg and 29.49 mg, respectively. The Activity in [9] is recorded as 30.2%.

Turning to `N=C(N)NCCC[C@H](N)C(=O)NCC(=O)N[C@@H](CC(=O)O)C(=O)NC(CO)C(=O)O` (single isomer, unassigned), the Am in test [1] is listed as 14.22%; in test [2] it was 40.54%; in test [3] it was 52.85%; in [4], 21.16%; in test [5], 36.15%; in test [6], 57.2%. Also, the Thrombus weight in test [7] is 7.68 mg; in test [8], 43.61 mg. This molecule also showed an Activity in [9] of 35.8%.

For the molecule `O=C(O)[C@@H]1Cc2c([nH]c3ccccc23)CN1` [CYCLOMETHYLTRYPTOPHAN], the Am in [1] was determined as 24.6%; in test [2] it was 45.16%; in test [3] it was 53.66%; in test [4], 35.66%; in test [5], 50.18%; in [6] it was 55.15%. Further, the Thrombus weight in test [11] was found to be 7.17 mg; in [8] it was 42.99 mg. Also, the Activity in [9] is listed as 45.6%.
